Test system: NF1-associated plexiform neurofibromas (PNs)
Experiment: Phase 2b trial of mirdametinib: efficacy by volumetric MRI per REiNS criteria (BICR)
Format: in vivo, human
Settings: for DoR ≥12 months, %: responders, first DoR line (r12)
Protocol: Study treatment was administered orally at a twice daily (BID) dose specified in the table below. Dosing was on a 28-day Cycle (4-week course) with a 3 week on/1 week off schedule. The treatment period will last for up to 24 Cycles followed by a 30-day Safety Follow-Up period.
A partial response was defined as PN decrease ≥20% compared to baseline using centrally read MRI volumetric analysis.
The major efficacy outcome measure was confirmed objective response rate (ORR), defined as the percentage of patients with complete response (disappearance of the target PN) or confirmed partial response (≥20% reduction in PN volume confirmed at a subsequent tumor assessment within 2-6 months during the 24-cycle treatment phase). Responses were assessed by blinded independent central review (BICR) using volumetric magnetic resonance imaging (MRI) analysis per Response Evaluation in Neurofibromatosis and Schwannomatosis (REiNS) criteria. A secondary efficacy objective was to determine the duration of response for patients who achieved a confirmed objective response.

O=C(NOC[C@H](O)CO)c1ccc(F)c(F)c1Nc1ccc(I)cc1F (single isomer, unassigned) [mirdametinib]
Confirmed Complete Response, n (%) (Adult (N = 58)): 0
Confirmed Objective Response Rate per REINS criteria by BICR, (%) (Adult (N = 58)): (41) %
Confirmed Partial Response, (%) (Adult (N = 58)): (41) %
DoR ≥12 months, % (Adult): (88%)
Confirmed Complete Response, n (%) (Pediatric (N = 56)): 0
Confirmed Objective Response Rate per REINS criteria by BICR, (%) (Pediatric (N = 56)): (52) %
Confirmed Partial Response, (%) (Pediatric (N = 56)): (52) %
DoR ≥12 months, % (Pediatric): (90%)

Reference: patent publication US20250387355A1 (SpringWorks Therapeutics Inc., priority 2024, published 2025)
